Assay [1] has as its target human plasma kallikrein (HPK) (Homo sapiens, UniProt P03952). Briefly: Inhibition of human plasma kallikrein (KI). In kind it is biochemical. As to conditions: Table 6, HUK; read-out: KI HUK. From the text:
Assay methods were based on the cleavage of chromogenic substrate S-2266 (D-Val-Leu-Arg-pNA) (Kabi; Charlotte, N.C.) by porcine pancreatic kallikrein (Sigma Chemical Company; St. Louis, Mo.) to yield an increase in absorbance at 405 nm. By changing the substrate and enzyme, the general method has been extended to measure the inhibition of human tissue kallikrein (HTK or human urinary kallikrein HUK), human plasma kallikrein (HPK), plasmin, and urokinase (UK). In all assays, the robot dilutes the inhibitor into a series of wells and adds substrate and buffer. Chromogenic reactions are started by the addition of enzyme. Changes in the absorbance at 405 nm in an array of wells were recorded. All manipulations were performed by the instrument from reservoirs containing substrate, inhibitor, diluent (water), buffer, or enzyme.

In assay [2] the target is porcine pancreatic kallikrein (PPK) (Sus scrofa, UniProt P00752). Briefly: Inhibition of porcine pancreatic kallikrein, cleavage of chromogenic substrate S-2266 (KI). In kind it is biochemical.
[3] abbreviates: Table 2, P3 substitutions, read-out: log KI (converted).

Where two headings read alike, the source gives them in different places. Non-standard residues stand in square brackets, D forms with d. Residues, ends and D or L forms follow the SMILES beside them. Phe(4-NH2) = Nc1ccc(C[C@H](N)C(=O)O)cc1; d(aIle) = CC[C@H](C)[C@@H](N)C(=O)O; dTle = CC(C)(C)[C@@H](N)C(=O)O; hLys = NCCCCC[C@H](N)C(=O)O; dAbu = CC[C@@H](N)C(=O)O

Chain of porcine pancreatic kallikrein (PPK) (P00752 8-87 limits assumed): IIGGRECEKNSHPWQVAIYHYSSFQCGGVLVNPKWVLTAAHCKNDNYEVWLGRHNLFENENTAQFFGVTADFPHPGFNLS
Chain of porcine pancreatic kallikrein (PPK) (P00752 95-246 limits assumed): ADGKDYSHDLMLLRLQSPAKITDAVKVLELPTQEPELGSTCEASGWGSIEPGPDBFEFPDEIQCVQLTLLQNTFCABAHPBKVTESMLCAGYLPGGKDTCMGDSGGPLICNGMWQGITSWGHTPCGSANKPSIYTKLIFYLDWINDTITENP
Chain of human plasma kallikrein (HPK) (P03952 20-638): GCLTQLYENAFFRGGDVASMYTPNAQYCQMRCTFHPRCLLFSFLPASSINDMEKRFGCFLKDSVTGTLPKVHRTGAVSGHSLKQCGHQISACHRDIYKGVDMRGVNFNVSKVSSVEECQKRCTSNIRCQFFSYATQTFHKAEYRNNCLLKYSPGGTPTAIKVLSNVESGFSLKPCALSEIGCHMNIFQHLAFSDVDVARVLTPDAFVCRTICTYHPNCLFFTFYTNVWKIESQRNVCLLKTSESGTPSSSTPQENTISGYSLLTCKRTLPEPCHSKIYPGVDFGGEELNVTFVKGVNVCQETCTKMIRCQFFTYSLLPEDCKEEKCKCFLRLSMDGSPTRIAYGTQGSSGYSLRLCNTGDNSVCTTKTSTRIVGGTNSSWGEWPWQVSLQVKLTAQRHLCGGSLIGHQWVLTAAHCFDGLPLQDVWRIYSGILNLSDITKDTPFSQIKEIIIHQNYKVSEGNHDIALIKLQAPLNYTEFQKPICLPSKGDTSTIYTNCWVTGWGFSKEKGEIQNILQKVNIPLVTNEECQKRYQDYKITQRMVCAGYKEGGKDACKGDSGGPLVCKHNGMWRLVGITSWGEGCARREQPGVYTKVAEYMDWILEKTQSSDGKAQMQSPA

For the compound `N=C(N)NCCC[C@H](NC(=O)[C@H](CC(N)=O)NC(=O)[C@H](CCCNC(=N)N)NC(=O)[C@H](Cc1ccccc1)NC(=O)[C@@H](N)CCCNC(=N)N)C(=O)N[C@@H](CCC(N)=O)C(N)=O` [Arg-Phe-Arg-Asn-Arg-Gln] (H-RFRNRQ-NH2), the Ki in assay [1] was 52 µM.

As to `CC(C)[C@H](NC(=O)[C@@H](CO)NC(=O)[C@H](CCCNC(=N)N)NC(=O)[C@H](Cc1ccccc1)NC(=O)[C@@H]1CCCN1)C(=O)N[C@@H](CCC(N)=O)C(N)=O` [D-Ser] (H-PFR[dS]VQ-NH2), in assay [2] (Table 5, Pro-Phe-Arg-X-Val-Gln, read-out: KI PPK), the Ki is 1120 µM.

With `CC(C)[C@H](NC(=O)[C@H](CO)NC(=O)[C@H](CCCCCN)NC(=O)[C@H](Cc1ccccc1)NC(=O)[C@@H]1CCCN1)C(=O)N[C@@H](CCC(N)=O)C(N)=O` [KIDZ-8, Pro-Phe-hLys-Ser-Val-Gln] (H-PF[hLys]SVQ-NH2), in assay [2] (Table 7, read-out: K1 PPK), the Ki was 203 µM.

As for `CC(C)[C@H](N)C(=O)N[C@@H](Cc1ccccc1)C(=O)N[C@H](C=O)Cc1ccc(N)cc1` [KITDS-2, Val-Phe-Phe(4NH2)-aldehyde] (H-Val-Phe-[Phe(4-NH2)]-aldehyde), the Ki in assay [2] (Table 7, read-out: K1 PPK) was determined as 160 µM.

Consider `Nc1ccc(C[C@@H](C=O)NC(=O)[C@H](Cc2ccccc2)NC(=O)[C@@H]2CCCN2C(=O)[C@@H](N)Cc2ccccc2)cc1` [KITSD-1, Phe-Pro-Phe-Phe(4NH2)-aldehyde] (H-FPF[Phe(4-NH2)]-aldehyde), for which the Ki in assay [2] (Table 7, read-out: K1 PPK) stood at 27 µM.

As to `CC(C)[C@H](NC(=O)[C@H](CO)NC(=O)[C@H](CCCNC(=N)N)NC(=O)[C@H](Cc1ccccc1)NC(=O)CN)C(=O)N[C@@H](CCC(N)=O)C(N)=O` [KKI-80, Gly-Phe-Arg-Ser-Val-Gln] (H-GFRSVQ-NH2), the Ki in assay [2] (setting [3]) was 79.4 µM.

Take `CC(C)[C@H](NC(=O)[C@H](CO)NC(=O)[C@H](CCCNC(=N)N)NC(=O)[C@H](Cc1ccccc1)NC(=O)[C@@H](C)N)C(=O)N[C@@H](CCC(N)=O)C(N)=O` [KKI-81, [D-Ala]-Phe-Arg-Ser-Val-Gln] (H-[dA]FRSVQ-NH2): the Ki in assay [2] (setting [3]) is 50.1 µM.

On to `CC[C@@H](N)C(=O)N[C@@H](Cc1ccccc1)C(=O)N[C@@H](CCCNC(=N)N)C(=O)N[C@@H](CO)C(=O)N[C@H](C(=O)N[C@@H](CCC(N)=O)C(N)=O)C(C)C` [KKI-82, [D-Aab]-Phe-Arg-Ser-Val-Gln] (H-[dAbu]FRSVQ-NH2), for which the Ki in assay [2] (setting [3]) was 43.7 µM.

Turning to `CC(C)[C@H](NC(=O)[C@H](CO)NC(=O)[C@H](CCCNC(=N)N)NC(=O)[C@H](Cc1ccccc1)NC(=O)[C@H](N)C(C)C)C(=O)N[C@@H](CCC(N)=O)C(N)=O` [KKI-83, [D-Val]-Phe-Arg-Ser-Val-Gln] (H-[dV]FRSVQ-NH2), the Ki in assay [2] (setting [3]) is 100 µM.

Turning to `CC(C)[C@H](NC(=O)[C@H](CO)NC(=O)[C@H](CCCNC(=N)N)NC(=O)[C@H](Cc1ccccc1)NC(=O)[C@H](N)C(C)(C)C)C(=O)N[C@@H](CCC(N)=O)C(N)=O` [KKI-84, [D-t-BuGly]-Phe-Arg-Ser-Val-Gln] (H-[dTle]FRSVQ-NH2), the Ki in assay [2] (setting [3]) is 75.9 µM.

Consider `CC[C@@H](C)[C@@H](N)C(=O)N[C@@H](Cc1ccccc1)C(=O)N[C@@H](CCCNC(=N)N)C(=O)N[C@@H](CO)C(=O)N[C@H](C(=O)N[C@@H](CCC(N)=O)C(N)=O)C(C)C` [KKI-85, [D-Ile]-Phe-Arg-Ser-Val-Gln] (H-[dI]FRSVQ-NH2), for which, in assay [2] (text b291, β-PPK, read-out: KI), the Ki was found to be 34 µM.

For the compound `CC[C@H](C)[C@@H](N)C(=O)N[C@@H](Cc1ccccc1)C(=O)N[C@@H](CCCNC(=N)N)C(=O)N[C@@H](CO)C(=O)N[C@H](C(=O)N[C@@H](CCC(N)=O)C(N)=O)C(C)C` [KKI-105] (H-[d(aIle)]FRSVQ-NH2), the Ki in assay [2] (setting [3]) is 57.5 µM.

In the case of `CC(C)[C@H](N)C(=O)N[C@@H](Cc1ccccc1)C(=O)N[C@@H](CCCNC(=N)N)C(=O)N[C@@H](CC(N)=O)C(=O)N[C@@H](CCCNC(=N)N)C(=O)N[C@@H](CCC(N)=O)C(N)=O` [Val-Phe-Arg-Asn-Arg-Gln] (H-VFRNRQ-NH2), in assay [1], the Ki came out at 532 µM.

As for `CC(C)[C@H](N)C(=O)N[C@@H](Cc1ccccc1)C(=O)N[C@@H](CCCNC(=N)N)C(=O)N[C@@H](CC(N)=O)C(=O)N[C@@H](CC(N)=O)C(=O)N[C@@H](CCCNC(=N)N)C(N)=O` [Val-Phe-Arg-Asn-Asn-Arg] (H-VFRNNR-NH2), in assay [1], the Ki amounted to 124 µM.
